This is an account of results in patent US10487348B2, “3-alpha-hydroxysteroid dehydrogenase mutants and process for the preparation of ursodeoxycholic acid” (Pharmazell GmbH, priority 2014, dated 2019).

Changes are numbered by the printed parent chain.

Assay [1] deals with T1, Comamonas testosteroni 3α-HSDH mutant [T188G], N-terminal hexahistidine tag (Comamonas testosteroni, UniProt P80702, T188G).
T1 sequence (P80702 1-257 T188G): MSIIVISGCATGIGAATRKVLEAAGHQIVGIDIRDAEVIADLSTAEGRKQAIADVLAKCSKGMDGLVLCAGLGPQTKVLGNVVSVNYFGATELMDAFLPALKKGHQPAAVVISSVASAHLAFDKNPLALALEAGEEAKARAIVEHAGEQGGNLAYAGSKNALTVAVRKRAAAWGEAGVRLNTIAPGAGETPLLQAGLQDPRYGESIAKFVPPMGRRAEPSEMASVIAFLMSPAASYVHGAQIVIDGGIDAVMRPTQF
The assay can be described thus: Kinetics of 3α-HSDH [T188G], N-terminal His tag. Type of assay: biochemical. The conditions noted are these: DHCA. As for the experimental part: (§1) The activity of the 3α-HSDH and of the mutants was determined using a photometric assay, where the decrease in absorbance was measured at 340 nm over a period of 30 seconds.
(§2) The targeted exchange of amino acid radicals was performed analogously to Example 2B.
Following cultivation and expression, the cells were harvested, and the specific activities of the cell-free crude extracts were determined at substrate concentrations of 10 mM DHCA. The enzyme variants where the activity measurements with crude extract enzyme were most promising were purified by means of Ni-NTA chromatography, and their kinetic constants were determined by measurements with different DHCA concentrations of between 10 μM and 20 mM. In addition, an expression check by means of SDS PAGE was carried out for all mutants.

The target of assay [2] is T2, Comamonas testosteroni 3α-HSDH, wild type, N-terminal hexahistidine tag (Comamonas testosteroni, UniProt P80702).
T2 sequence (P80702 1-257): T1 sequence (P80702 1-257 T188G) with G188T
Kind of assay: Michaelis-Menten kinetics of wild-type 3α-HSDH with N-terminal His tag. Type of assay: biochemical. The conditions noted are these: Table 14, substrate DHCA, apparent values.
Text: The His-tag allows for very simple purification of the HSDH protein since this sequence is bound with high specificity by specific chromatographic material (NTA (Ni-nitrilotriacetate)-modified support material, loaded with divalent nickel ions, for example “His Pur Ni-NTA” (Nimagen B. V., Nijmegen, The Netherlands)). To this end, the cell-free crude extract is applied to a dropping column comprising this material, which dropping column has previously been equilibrated with the disruption buffer (3 to 5 column volumes). Weakly binding protein was removed by washing with 3 to 5 column volumes of wash buffer (20 mM imidazole, 50 mM sodium phosphate, 300 mM NaCl, pH 8). The His-tag-3α-HSDH protein was eluted with imidazole-comprising elution buffer (250 mM imidazole, 50 mM sodium phosphate, 300 mM NaCl, pH 8). The process was carried out at room temperature. The imidazole which was present was to be removed by buffer exchange.
as §1, §2
Following cultivation and expression, the cells were harvested, and the specific activities of the cell-free crude extracts were determined at substrate concentrations of 10 mM DHCA. […]

Assay [3] addresses T3, Comamonas testosteroni 3α-HSDH dual mutant [L68A/T188S], N-terminal hexahistidine tag (Comamonas testosteroni, UniProt P80702, L68A/T188S).
T3 sequence (P80702 1-257 L68A/T188S): T1 sequence (P80702 1-257 T188G) with L68A, G188S

Assay [4] concerns the target T4, Comamonas testosteroni 3α-HSDH, wild type, C-terminal 3×His tag (Comamonas testosteroni, UniProt P80702).
T4 sequence (P80702 with tags, fused parts or gaps): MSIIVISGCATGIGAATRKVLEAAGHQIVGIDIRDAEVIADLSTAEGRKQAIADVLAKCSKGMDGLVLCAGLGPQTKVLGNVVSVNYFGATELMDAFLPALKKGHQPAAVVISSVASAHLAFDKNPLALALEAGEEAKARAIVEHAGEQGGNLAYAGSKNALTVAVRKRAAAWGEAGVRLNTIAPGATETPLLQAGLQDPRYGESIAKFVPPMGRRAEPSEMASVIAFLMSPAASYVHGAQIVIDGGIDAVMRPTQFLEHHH
Kind of assay: Michaelis-Menten kinetics of 3α-HSDH with 3×His tag. To be noted: His tag length 3; DHCA 10 μM-10 mM; NADH 0.2 mM; purified.
Text: The His-tag allows for very simple purification of the HSDH protein since this sequence is bound with high specificity by specific chromatographic material (NTA (Ni-nitrilotriacetate)-modified support material, loaded with divalent nickel ions, for example “His Pur Ni-NTA” (Nimagen B. V., Nijmegen, The Netherlands)). To this end, the cell-free crude extract is applied to a dropping column comprising this material, which dropping column has previously been equilibrated with the disruption buffer (3 to 5 column volumes). Weakly binding protein was removed by washing with 3 to 5 column volumes of wash buffer (20 mM imidazole, 50 mM sodium phosphate, 300 mM NaCl, pH 8). […] The process was carried out at room temperature. The imidazole which was present was to be removed by buffer exchange.
Following expression (25° C., 0.5 mM, IPTG, 20 hours), the protein was purified, and the expression and the purification were checked by means of an SDS gel. […] The NADH concentration was 0.2 mM. Purified protein was employed in the measurements.

The target in assay [5] is T5, Comamonas testosteroni 3α-HSDH, wild type, without His tag, SEQ ID NO:4 (Comamonas testosteroni, UniProt P80702).
T5 sequence (P80702 1-257): T1 sequence (P80702 1-257 T188G) with G188T
Kind of assay: Michaelis-Menten kinetics of wild-type 3α-HSDH without His tag.

For assay [6], the target named is T6, Comamonas testosteroni 3α-HSDH mutant [P185A], N-terminal hexahistidine tag (Comamonas testosteroni, UniProt P80702, P185A).
T6 sequence (P80702 1-257 P185A): T1 sequence (P80702 1-257 T188G) with P185A, G188T
The assay can be described thus: Kinetics of 3α-HSDH [P185A], N-terminal His tag.

The mark [7] stands for this setting: Table 14, substrate DHCA, tag N, apparent values.

Take `C[C@H](CCC(=O)O)[C@H]1CC[C@H]2[C@@H]3C(=O)C[C@@H]4CC(=O)CC[C@]4(C)[C@H]3CC(=O)[C@]12C` [DHCA, dehydrocholic acid]: the substrate excess inhibition entry in assay [1] is “No pronounced substrate excess inhibition”. For the same compound, the kcat in assay [2] was 47.1 s⁻¹; in assay [3] (setting [7]) it was 91.8 s⁻¹; in assay [4], 6.5 ± 2.1 s⁻¹; in assay [6] (setting [7]) it was 48.5 s⁻¹. Further, the vmax is 98.7 ± 4.7 U/mg in assay [2]; 193.2 ± 11.4 U/mg in assay [3] (setting [7]); 14.3 ± 4.8 U/mg in assay [4]; 134 ± 3.8 U/mg in assay [5] (Table 14, substrate DHCA, no tag, apparent values); 102.8 ± 5.7 U/mg in assay [6] (setting [7]). Besides, the figures for the remaining activity at 10000 µM in assay [3] (read-out: residual activity) and in assay [6] (read-out: residual activity) were approximately 20% and 5%, respectively. For the same compound, in assay [5] (after increasing DHCA further above approximately 1 mM, substrate excess inhibition), the residual activity is recorded as 10-20%.

What is called kcat is the maximal rate divided by the concentration of active sites.
